Test results taken from publication PMC5733478, “A Non-imaging High Throughput Approach to Chemical Library Screening at the Unmodified Adenosine-A3 Receptor in Living Cells” (Frontiers in Pharmacology, 2017).
Where a name gives a salt, the structure may show the parent alone. Where a SMILES comes first, the peptide text is derived from it. The star is where a group is joined. Cbz = O=C(OCc1ccccc1)*

Each compound was assayed against T1, human A3AR (Homo sapiens, UniProt P0DMS8) (assay: LOPAC library primary screen: single concentration (10 μM) inhibition of 25 nM CA200645 binding, PHERAstar FS). Settings: not given.
T1 construct: expressed in transfected cells
T1 sequence (P0DMS8 1-318): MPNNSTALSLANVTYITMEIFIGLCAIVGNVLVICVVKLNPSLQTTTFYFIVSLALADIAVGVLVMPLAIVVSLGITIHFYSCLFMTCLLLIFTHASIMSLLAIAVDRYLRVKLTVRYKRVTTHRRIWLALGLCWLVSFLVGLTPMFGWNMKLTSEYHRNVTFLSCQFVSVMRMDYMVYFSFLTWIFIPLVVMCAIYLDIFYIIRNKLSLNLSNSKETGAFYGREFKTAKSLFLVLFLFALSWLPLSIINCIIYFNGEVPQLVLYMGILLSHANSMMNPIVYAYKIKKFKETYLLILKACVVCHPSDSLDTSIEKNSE

SMILES	% 25 nM CA200645 binding
O=C(O)c1nn(Cc2ccc(Cl)cc2Cl)c2ccccc12 [Lonidamine]	94.6 ± 7.2%
CCOC(=O)N1CCC(=C2c3ccc(Cl)cc3CCc3cccnc32)CC1 [Loratadine]	85.0 ± 1.8%
CN1CCN(C2=Nc3ccccc3Oc3ccc(Cl)cc32)CC1 [Loxapine succinate]	80.2 ± 12.7%
O=C(O)/C(=C/c1c(C(=O)O)[nH]c2cc(Cl)cc(Cl)c12)c1ccccc1 [MDL 105,519]	101.6 ± 19.9%
CC(C)[C@H](NC(=O)OCc1ccccc1)C(=O)N[C@H](C=O)Cc1ccccc1 [MDL 28170] (Cbz-Val-Phe-aldehyde)	96.0 ± 2.8%
CC[N+](CC)(CC)CCOc1ccc(/C=C/c2ccccc2)cc1 [MG 624]	106.9 ± 11.5%
C1CNCCN1.COc1cc(C(O)CO)ccc1O.COc1cc(C(O)CO)ccc1O (stereo not shown) [MHPG piperazine]	95.1 ± 7.6%
COc1cc(C(O)CO)ccc1OS(=O)(=O)[O-].[K+] (stereo not shown) [MHPG sulfate potassium]	102.8 ± 6.8%
CC(C)c1ccc2c(c1)c(SC(C)(C)C)c(CC(C)(C)C(=O)O)n2Cc1ccc(Cl)cc1 [MK-886]	98.7 ± 12.2%
COc1cc(N)c(Cl)cc1C(=O)OCCN1CCCCC1 [ML 10302]	105.8 ± 6.4%
O=[N+]([O-])/C=C/c1ccc2c(c1)OCO2 [MNS]	50.1 ± 14.8%
CCCOC(=O)c1c(-c2ccccc2)nc(CC)c(C(=O)SCC)c1CCC [MRS 1523, reference compound]	57.3 ± 10.9%
Cc1nc(N=Nc2ccc(C(=O)O)cc2)c(COP(=O)(O)O)c(C=O)c1O [MRS 2159]	83.0 ± 11.6%
CNc1ncnc2c1ncn2[C@H]1C[C@H](OP(=O)(O)O)[C@@H](COP(=O)(O)O)O1 [MRS 2179]	108.4 ± 2.3%
CNCCCC12CCC(c3ccccc31)c1ccccc12 [Maprotiline hydrochloride]	93.0 ± 35.9%
C[N+](C)(C)CC#CCOC(=O)Nc1cccc(Cl)c1.[Cl-] [McN-A-343]	93.8 ± 10.4%
CN(N=O)c1ccc(O)c(O)c1 [Me-3,4-dephostatin]	87.0 ± 11.0%
CNC1(C)C2CCC(C2)C1(C)C (stereo not shown) [Mecamylamine hydrochloride]	65.4 ± 10.0%
Cc1ccc(Cl)c(Nc2ccccc2C(=O)O)c1Cl [Meclofenamic acid sodium]	93.6 ± 9.6%
COc1ccc2[nH]cc(CCNC(C)=O)c2c1 [Melatonin]	106.6 ± 11.6%
Cc1cnc(NC(=O)C2=C(O)c3ccccc3S(=O)(=O)N2C)s1 [Meloxicam sodium]	93.6 ± 6.8%

SMILES	% 25 nM CA200645 binding
CC12CC3CC(C)(C1)CC(N)(C3)C2 [Memantine hydrochloride]	109.9 ± 10.5%
COc1ccc(CCn2nnnc2C2(c3ccc(C)cc3)CC2)cc1 [Mephetyl tetrazole]	66.4 ± 18.5%
CC(C)NCC(O)c1cc(O)cc(O)c1.CC(C)NCC(O)c1cc(O)cc(O)c1.O=S(=O)(O)O (stereo not shown) [Metaproterenol hemisulfate]	102.0 ± 5.4%
CN1C[C@H](CNC(=O)OCc2ccccc2)C[C@@H]2c3cccc4c3c(cn4C)C[C@H]21 [Metergoline]	94.1 ± 8.5%
CN(Cc1cnc2nc(N)nc(N)c2n1)c1ccc(C(=O)N[C@@H](CCC(=O)O)C(=O)O)cc1.O [Methotrexate hydrate]	100.1 ± 8.9%
COc1ccc(OC)c(C(O)C(C)N)c1 (stereo not shown) [Methoxamine hydrochloride]	132.3 ± 57.0%
CC[C@@H](CO)NC(=O)[C@@H]1C=C2c3cccc4[nH]cc(c34)C[C@H]2N(C)C1 [Methylergonovine maleate]	91.6 ± 8.0%
CC[C@@H](CO)NC(=O)[C@@H]1C=C2c3cccc4c3c(cn4C)C[C@H]2N(C)C1 [Methysergide maleate]	92.3 ± 21.2%
CCN(CC)CCNC(=O)c1cc(Cl)c(N)cc1OC.Cl [Metoclopramide hydrochloride]	106.5 ± 2.9%
Cc1ccccc1N1C(=O)c2cc(S(N)(=O)=O)c(Cl)cc2NC1C (stereo not shown) [Metolazone]	90.5 ± 39.1%
Cc1cccc(C)c1OCC(C)N.Cl (stereo not shown) [Mexiletene hydrochloride]	99.4 ± 6.9%
CN1CCN2c3ccccc3Cc3ccccc3C2C1 (stereo not shown) [Mianserin hydrochloride]	92.0 ± 7.7%
COCC(=O)O[C@]1(CCN(C)CCCc2nc3ccccc3[nH]2)CCc2cc(F)ccc2[C@@H]1C(C)C [Mibefradil dihydrochloride]	107.6 ± 26.6%
CC#C[C@]1(O)CC[C@H]2[C@@H]3CCC4=CC(=O)CCC4=C3[C@@H](c3ccc(N(C)C)cc3)C[C@@]21C [Mifepristone]	83.5 ± 5.2%
Cc1[nH]c(=O)c(C#N)cc1-c1ccncc1 [Milrinone]	97.0 ± 4.9%
CN(C)c1ccc(O)c2c1C[C@H]1C[C@H]3[C@H](N(C)C)C(O)=C(C(N)=O)C(=O)[C@@]3(O)C(O)=C1C2=O [Minocycline hydrochloride]	101.7 ± 17.9%
Nc1cc(N2CCCCC2)nc(N)[n+]1[O-] [Minoxidil]	96.7 ± 6.2%
O=C1c2c(O)ccc(O)c2C(=O)c2c(NCCNCCO)ccc(NCCNCCO)c21 [Mitoxantrone]	88.5 ± 12.7%
NC(=O)c1ncn([C@@H]2O[C@H](CO)[C@@H](O)[C@H]2O)c1O [Mizoribine]	101.6 ± 4.8%
O=C(NCCN1CCOCC1)c1ccc(Cl)cc1 [Moclobemide]	97.8 ± 6.0%
CCc1c(C)[nH]c2c1C(=O)C(CN1CCOCC1)CC2 (stereo not shown) [Molindone hydrochloride]	91.2 ± 7.2%

SMILES	% 25 nM CA200645 binding
CCOC(=O)[N-]c1cn(N2CCOCC2)n[o+]1 [Molsidomine]	91.8 ± 17.4%
O=c1c(O)c(-c2ccc(O)cc2O)oc2cc(O)cc(O)c12 [Morin]	72.1 ± 9.6%
COc1nc(C)nc(Cl)c1NC1=NCCN1.Cl [Moxonidine hydrochloride]	99.1 ± 3.2%
Br.NCc1cc(O)no1 [Muscimol hydrobromide]	107.5 ± 2.4%
O=c1c(O)c(-c2cc(O)c(O)c(O)c2)oc2cc(O)cc(O)c12 [Myricetin]	62.7 ± 9.0%
CCNc1nc2c(ncn2[C@H]2C[C@H](O)[C@@H](CO)O2)c(=O)[nH]1 [N2-Ethyl-2'-deoxyguanosine]	108.7 ± 6.3%
Nc1ccc(CCNc2ncnc3c2ncn3[C@@H]2O[C@H](CO)[C@@H](O)[C@H]2O)cc1 [N6-2-(4-Aminophenyl)ethyladenosine]	41.0 ± 7.1%
OC[C@H]1O[C@@H](n2cnc3c(NC4CCCCC4)ncnc32)[C@H](O)[C@@H]1O [N6-Cyclohexyladenosine]	92.9 ± 12.9%
OC[C@H]1O[C@@H](n2cnc3c(NC4CCCC4)ncnc32)[C@H](O)[C@@H]1O [N6-Cyclopentyladenosine]	69.6 ± 6.1%
CNc1ncnc2c1ncn2[C@@H]1O[C@H](CO)[C@@H](O)[C@H]1O [N6-Methyladenosine]	61.1 ± 11.7%
CN(C)C(=O)N=NC(=O)N(C)C [N,N,N',N'-Tetramethylazodicarboxamide]	95.9 ± 2.2%
NCC(=O)NCCC(c1ccccc1)c1ccccc1 [N-(3,3-Diphenylpropyl)glycinamide]	98.7 ± 7.8%
Nc1ccc(N2C(=O)c3ccccc3C2=O)c(Cl)c1 [N-(4-Amino-2-chlorophenyl)phthalimide]	91.1 ± 7.1%
CC(=O)NCCc1c[nH]c2ccc(O)cc12 [N-Acetyl-5-hydroxytryptamine]	100.5 ± 7.6%
CC(=O)N[C@@H](CS)C(=O)O [N-Acetyl-L-Cysteine]	100.3 ± 0.2%
CCN(CC)CCNC(=O)c1ccc(NC(C)=O)cc1.Cl [N-Acetylprocainamide hydrochloride]	86.4 ± 17.7%
CC(=O)NCCc1c[nH]c2ccccc12 [N-Acetyltryptamine]	99.0 ± 14.1%
CC(=O)NBr [N-Bromoacetamide]	97.9 ± 5.0%
CCN1C(=O)C=CC1=O [N-Ethylmaleimide]	99.8 ± 13.3%
CN1C[C@H](O)[C@@H](O)[C@H](O)[C@H]1CO [N-Methyl-1-deoxynojirimycin]	100.7 ± 20.9%
CN[C@H](CC(=O)O)C(=O)O [N-Methyl-D-aspartic acid]	109.5 ± 4.3%

Same assay, conditions: % of 25 nM CA200645 binding in the presence of 10 μM compound, LOPAC full screen, A3AR CHO cells

SMILES	% Total CA200645 binding
CCCOC(=O)c1c(-c2ccccc2)nc(CC)c(C(=O)SCC)c1CCC [MRS 1523, reference compound]	58.3 ± 11.4%

Same assay, conditions: % of control wells (1% DMSO and 25 nM CA200645); compounds at 10 µM; whole live cells expressing the A3AR; mean ± SD, three experiments in duplicate

SMILES	% 25 nM CA200645 binding
CCCCCN(CCCCC)C(=O)C(CCC(=O)O)NC(=O)c1ccc(Cl)c(Cl)c1 (stereo not shown) [Lorglumide sodium]	99.4 ± 5.5%
Cc1ccccc1/C=C/C1=NCCN1 [Metrazoline oxalate]	97.1 ± 2.0%
Clc1ccc2c(c1)N=C(N1CCNCC1)c1ccccc1N2 [N-Desmethylclozapine]	98.4 ± 14.7%

Same assay, conditions: compounds tested at 10 µM; % of control wells (1% DMSO and 25 nM CA200645); whole live cells expressing the A3AR; mean ± SD, three experiments in duplicate

SMILES	% 25 nM CA200645 binding
CCCCN(CCCC)CC(O)c1cc(Cl)cc2c1-c1ccc(Cl)cc1/C2=C/c1ccc(Cl)cc1 (stereo not shown) [Lumefantrine]	94.4 ± 10.9%
CSc1ccc2c(c1)C(N1CCN(C)CC1)Cc1ccccc1S2 (stereo not shown) [Methiothepin mesylate]	112.2 ± 9.4%
CC[C@H](C)C(=O)O[C@H]1CCC=C2C=C[C@H](C)[C@H](CC[C@@H]3C[C@@H](O)CC(=O)O3)[C@H]21 [Mevastatin]	107.1 ± 10.0%
